Test results from US20210032253A1, “PYRAZOLO[1,5-A][1,3,5]TRIAZINE-2-AMINE DERIVATIVE, PREPARATION METHOD THEREFOR AND MEDICAL USE THEREOF” (JIANGSU HENGRUI MEDICINE CO., LTD., priority 2018, published 2021).

Target: T1, adenosine A3 receptor (A3R) (Homo sapiens, UniProt P0DMS8)
T1 construct: expressed in transfected cells; host or cells: CHO-K1
T1 sequence (P0DMS8 1-318): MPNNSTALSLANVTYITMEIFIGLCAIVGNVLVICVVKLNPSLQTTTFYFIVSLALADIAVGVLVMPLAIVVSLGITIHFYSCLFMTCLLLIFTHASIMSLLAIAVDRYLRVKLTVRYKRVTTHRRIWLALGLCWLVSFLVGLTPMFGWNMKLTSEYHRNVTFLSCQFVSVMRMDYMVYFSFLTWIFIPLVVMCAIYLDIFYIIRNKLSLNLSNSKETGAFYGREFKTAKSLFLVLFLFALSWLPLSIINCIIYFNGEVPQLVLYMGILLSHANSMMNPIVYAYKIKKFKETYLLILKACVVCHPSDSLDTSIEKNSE
Experiment: Inhibition of adenosine A3 receptor cAMP signaling pathway in CHO-K1/A3R cells (HTRF cAMP dynamic 2 kit)
Format: cell-based
Settings: Table 3; for IC50: CHO-K1/A3R cells, cAMP, 10 μM forskolin, 5 nM 2Cl-IB-MECA; for IC50 ratio (A3R/A2aR): selectivity A3R over A2aR
In short: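 CHO-K1 cells expressing A3R, in HBSS/HEPES/BSA with rolipram and adenosine deaminase, were preincubated 30 min with compound (0.1–100000 nM final). They were then stimulated 30 min with 10 μM forskolin plus 5 nM 2Cl-IB-MECA at room temperature. cAMP read by HTRF and IC50 calculated.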

| SMILES | IC50 [nM] | IC50 ratio (A3R/A2aR) |
| --- | --- | --- |
| Cc1ccc(-c2nc(N)nc3c(Oc4cccc(CO[C@H]5CCOC5)n4)cnn23)o1 [Example 19, (S)-4-(5-Methylfuran-2-yl)-8-((6-(((tetrahydrofuran-3-yl)oxy)methyl)pyridin-2-yl)oxy)pyrazolo[1,5-a][1,3,5]triazin-2-amine] | 4790 | >10^3 |
| Cc1ccc(-c2nc(N)nc3c(Nc4cccc(CO[C@H]5CCOC5)n4)cnn23)o1 [Example 18, (S)-4-(5-Methylfuran-2-yl)-N^8-(6-(((tetrahydrofuran-3-yl)oxy)methyl)pyridin-2-yl)pyrazolo[1,5-a][1,3,5]triazine-2,8-diamine] | 2200 | >10^3 |
| Cc1ccc(-c2nc(N)nc3c(Cc4cccc(CO[C@H]5CCOC5)n4)cnn23)o1 [Example 1, (S)-4-(5-Methylfuran-2-yl)-8-((6-(((tetrahydrofuran-3-yl)oxy)methyl)pyridin-2-yl)methyl)pyrazolo[1,5-a][1,3,5]triazin-2-amine] | 2060 | >10^3 |
